Test results as given in paper PMC5224920, “Assessing the mechanism and therapeutic potential of modulators of the human Mediator complex-associated protein kinases” (eLife, 2016).

Test system: 12 single or co-culture in vitro tissue models of primary cells
Experiment: Culture/co-culture cell model panel, extracellular biomarkers (DiscoveRx); for CCL2/MCP-1: reference of the scale not given here; for CD141/Thrombomodulin: reference of the scale not given here; for CD142/Tissue Factor: reference of the scale not given here; for CD38: reference of the scale not given here; for CD40: reference of the scale not given here; for CD69: reference of the scale not given here; for CXCL8/IL-8: reference of the scale not given here; for CXCL9/MIG: reference of the scale not given here; for IL-1alpha: reference of the scale not given here; for M-CSF: reference of the scale not given here; for SRB: reference of the scale not given here; for sPGE2: reference of the scale not given here; for sTNF-alpha: reference of the scale not given here
Assay type: cell-based, human
[1] = HDF3CGF stimulated fibroblasts, 4.12E1 nM
[2] = HDF3CGF stimulated fibroblasts, 4.57E0 nM
[3] = HPNo Huvec+PBMC unstimulated, 1.00E4 nM
[4] = HPNo Huvec+PBMC unstimulated, 1.11E3 nM
[5] = HPNo Huvec+PBMC unstimulated, 1.23E2 nM
[6] = HPNo Huvec+PBMC unstimulated, 1.37E1 nM
[7] = HPNo Huvec+PBMC unstimulated, 3.33E3 nM
[8] = HPNo Huvec+PBMC unstimulated, 3.70E2 nM
[9] = HPNo Huvec+PBMC unstimulated, 4.12E1 nM
[10] = HPNo Huvec+PBMC unstimulated, 4.57E0 nM

Cc1n[nH]c2ncc(C(=O)N3CCC[C@H]3c3ccc(Cl)cc3)cc12 [CMPD4]
CXCL9/MIG [1]: -0.024 | CXCL10/IP-10 [1]: 0.059 | CXCL11/I-TAC [1]: -0.035 | Collagen I [1]: 0.021 | Collagen III [1]: 0.082 | EGFR [1]: -0.094 | M-CSF [1]: -0.046 | MMP-1 [1]: -0.00129 | PAI-I [1]: 0.033 | Proliferation_72hr [1]: -0.178 | SRB [1]: 0.010 | TIMP-1 [1]: -0.070 | TIMP-2 [1]: 0.099 | CCL2/MCP-1 [2]: -0.020 | CD54/ICAM-1 [2]: -0.041 | CD106/VCAM-1 [2]: 0.047 | CXCL8/IL-8 [2]: -0.013 | CXCL9/MIG [2]: 0.00852 | CXCL10/IP-10 [2]: 0.000432 | CXCL11/I-TAC [2]: -0.0056 | Collagen I [2]: 0.023 | Collagen III [2]: 0.081 | EGFR [2]: -0.043 | M-CSF [2]: -0.051 | MMP-1 [2]: 0.013 | PAI-I [2]: -0.032 | Proliferation_72hr [2]: -0.119 | SRB [2]: 0.018 | TIMP-1 [2]: -0.010 | TIMP-2 [2]: 0.136 | CCL2/MCP-1 [3]: 0.039 | CD38 [3]: 0.081 | CD40 [3]: -0.033 | CD106/VCAM-1 [3]: 0.342 | CD141/Thrombomodulin [3]: 0.00066 | CD142/Tissue Factor [3]: 0.063 | CCL2/MCP-1 [4]: 0.053 | CD38 [4]: -0.040 | CD40 [4]: -0.130 | CD106/VCAM-1 [4]: 0.396 | CD141/Thrombomodulin [4]: 0.021 | CD142/Tissue Factor [4]: 0.064 | CCL2/MCP-1 [5]: 0.040 | CD38 [5]: -0.022 | CD40 [5]: -0.171 | CD106/VCAM-1 [5]: 0.307 | CD141/Thrombomodulin [5]: 0.025 | CD142/Tissue Factor [5]: 0.061 | CCL2/MCP-1 [6]: 0.053 | CD38 [6]: -0.066 | CD40 [6]: -0.106 | CD106/VCAM-1 [6]: 0.175 | CD141/Thrombomodulin [6]: 0.022 | CD142/Tissue Factor [6]: 0.010 | CCL2/MCP-1 [7]: 0.058 | CD38 [7]: 0.024 | CD40 [7]: -0.093 | CD106/VCAM-1 [7]: 0.305 | CD141/Thrombomodulin [7]: 0.019 | CD142/Tissue Factor [7]: 0.022 | CCL2/MCP-1 [8]: 0.274 | CD38 [8]: -0.028 | CD40 [8]: -0.186 | CD106/VCAM-1 [8]: 0.375 | CD141/Thrombomodulin [8]: 0.045 | CD142/Tissue Factor [8]: 0.045 | CCL2/MCP-1 [9]: 0.148 | CD38 [9]: -0.052 | CD40 [9]: -0.089 | CD106/VCAM-1 [9]: 0.250 | CD141/Thrombomodulin [9]: 0.031 | CD142/Tissue Factor [9]: 0.096 | CCL2/MCP-1 [10]: -0.076 | CD38 [10]: -0.060 | CD40 [10]: -0.075 | CD106/VCAM-1 [10]: 0.144 | CD141/Thrombomodulin [10]: 0.022 | CD142/Tissue Factor [10]: 0.017 | CD62E/E-Selectin (HPNo, 1.00E4 nM): 0.080 | CD69 (HPNo, 1.00E4 nM): 0.150 | CXCL8/IL-8 (HPNo, 1.00E4 nM): 0.030 | CXCL9/MIG (HPNo, 1.00E4 nM): -0.025 | M-CSF (HPNo, 1.00E4 nM): 0.075 | SRB (HPNo, 1.00E4 nM): -0.053 | sPGE2 (HPNo, 1.00E4 nM): 0.066 | sTNF-alpha (HPNo, 1.00E4 nM): -0.036 | CD62E/E-Selectin (HPNo, 1.11E3 nM): 0.014 | CD69 (HPNo, 1.11E3 nM): 0.063 | CXCL8/IL-8 (HPNo, 1.11E3 nM): -0.048 | CXCL9/MIG (HPNo, 1.11E3 nM): -0.091 | M-CSF (HPNo, 1.11E3 nM): 0.074 | SRB (HPNo, 1.11E3 nM): -0.034 | sPGE2 (HPNo, 1.11E3 nM): 0.043 | sTNF-alpha (HPNo, 1.11E3 nM): -0.019 | CD62E/E-Selectin (HPNo, 1.23E2 nM): -0.027 | CD69 (HPNo, 1.23E2 nM): 0.039 | CXCL8/IL-8 (HPNo, 1.23E2 nM): 0.011 | CXCL9/MIG (HPNo, 1.23E2 nM): -0.025 | M-CSF (HPNo, 1.23E2 nM): -0.084 | SRB (HPNo, 1.23E2 nM): -0.005 | sPGE2 (HPNo, 1.23E2 nM): 0.030 | sTNF-alpha (HPNo, 1.23E2 nM): 0.010 | CD62E/E-Selectin (HPNo, 1.37E1 nM): -0.035 | CD69 (HPNo, 1.37E1 nM): -0.005 | CXCL8/IL-8 (HPNo, 1.37E1 nM): -0.023 | CXCL9/MIG (HPNo, 1.37E1 nM): -0.068 | M-CSF (HPNo, 1.37E1 nM): 0.015 | SRB (HPNo, 1.37E1 nM): 0.027 | sPGE2 (HPNo, 1.37E1 nM): 0.00254 | sTNF-alpha (HPNo, 1.37E1 nM): 0.00645 | CD62E/E-Selectin (HPNo, 3.33E3 nM): -0.020 | CD69 (HPNo, 3.33E3 nM): 0.040 | CXCL8/IL-8 (HPNo, 3.33E3 nM): -0.040 | CXCL9/MIG (HPNo, 3.33E3 nM): 0.018 | M-CSF (HPNo, 3.33E3 nM): 0.034 | SRB (HPNo, 3.33E3 nM): -0.058 | sPGE2 (HPNo, 3.33E3 nM): 0.038 | sTNF-alpha (HPNo, 3.33E3 nM): -0.021 | CD62E/E-Selectin (HPNo, 3.70E2 nM): 0.026 | CD69 (HPNo, 3.70E2 nM): 0.012 | CXCL8/IL-8 (HPNo, 3.70E2 nM): -0.025 | CXCL9/MIG (HPNo, 3.70E2 nM): -0.067 | M-CSF (HPNo, 3.70E2 nM): -0.063 | SRB (HPNo, 3.70E2 nM): -0.017 | sPGE2 (HPNo, 3.70E2 nM): 0.040 | sTNF-alpha (HPNo, 3.70E2 nM): -0.022 | CD62E/E-Selectin (HPNo, 4.12E1 nM): -0.00169 | CD69 (HPNo, 4.12E1 nM): 0.020 | CXCL8/IL-8 (HPNo, 4.12E1 nM): 0.023 | CXCL9/MIG (HPNo, 4.12E1 nM): -0.041 | M-CSF (HPNo, 4.12E1 nM): -0.031 | SRB (HPNo, 4.12E1 nM): -0.00266 | sPGE2 (HPNo, 4.12E1 nM): 0.016 | sTNF-alpha (HPNo, 4.12E1 nM): 0.015 | CD62E/E-Selectin (HPNo, 4.57E0 nM): 0.045 | CD69 (HPNo, 4.57E0 nM): 0.075 | CXCL8/IL-8 (HPNo, 4.57E0 nM): 0.031 | CXCL9/MIG (HPNo, 4.57E0 nM): -0.000203 | M-CSF (HPNo, 4.57E0 nM): 0.012 | SRB (HPNo, 4.57E0 nM): 0.035 | sPGE2 (HPNo, 4.57E0 nM): 0.00462 | sTNF-alpha (HPNo, 4.57E0 nM): 0.128 | CCL2/MCP-1 (LPS Huvec+PBMC, 1.00E4 nM): -0.081 | CD40 (LPS Huvec+PBMC, 1.00E4 nM): -0.109 | CD62E/E-Selectin (LPS Huvec+PBMC, 1.00E4 nM): 0.010 | CD69 (LPS Huvec+PBMC, 1.00E4 nM): 0.030 | CD106/VCAM-1 (LPS Huvec+PBMC, 1.00E4 nM): 0.079 | CD141/Thrombomodulin (LPS Huvec+PBMC, 1.00E4 nM): 0.127 | CD142/Tissue Factor (LPS Huvec+PBMC, 1.00E4 nM): 0.079 | CXCL8/IL-8 (LPS Huvec+PBMC, 1.00E4 nM): -0.169 | IL-1alpha (LPS Huvec+PBMC, 1.00E4 nM): 0.125 | M-CSF (LPS Huvec+PBMC, 1.00E4 nM): 0.029 | SRB (LPS Huvec+PBMC, 1.00E4 nM): -0.141 | sPGE2 (LPS Huvec+PBMC, 1.00E4 nM): 0.164 | sTNF-alpha (LPS Huvec+PBMC, 1.00E4 nM): -0.051 | CCL2/MCP-1 (LPS Huvec+PBMC, 1.11E3 nM): -0.044 | CD40 (LPS Huvec+PBMC, 1.11E3 nM): -0.137 | CD62E/E-Selectin (LPS Huvec+PBMC, 1.11E3 nM): 0.000345 | CD69 (LPS Huvec+PBMC, 1.11E3 nM): 0.043 | CD106/VCAM-1 (LPS Huvec+PBMC, 1.11E3 nM): 0.105 | CD141/Thrombomodulin (LPS Huvec+PBMC, 1.11E3 nM): 0.090 | CD142/Tissue Factor (LPS Huvec+PBMC, 1.11E3 nM): 0.097 | CXCL8/IL-8 (LPS Huvec+PBMC, 1.11E3 nM): -0.191
